Results on 5 compounds are retold here after ChEMBL document CHEMBL2331414, “N-1, C-3 substituted indoles as 5-LOX inhibitors--in vitro enzyme immunoaasay, mass spectral and molecular docking investigations” (Bioorg Med Chem Lett, 2013).

The target in test [1] is T1, Polyunsaturated fatty acid 5-lipoxygenase (Homo sapiens) (UniProt P09917).
T1 sequence (whole entry): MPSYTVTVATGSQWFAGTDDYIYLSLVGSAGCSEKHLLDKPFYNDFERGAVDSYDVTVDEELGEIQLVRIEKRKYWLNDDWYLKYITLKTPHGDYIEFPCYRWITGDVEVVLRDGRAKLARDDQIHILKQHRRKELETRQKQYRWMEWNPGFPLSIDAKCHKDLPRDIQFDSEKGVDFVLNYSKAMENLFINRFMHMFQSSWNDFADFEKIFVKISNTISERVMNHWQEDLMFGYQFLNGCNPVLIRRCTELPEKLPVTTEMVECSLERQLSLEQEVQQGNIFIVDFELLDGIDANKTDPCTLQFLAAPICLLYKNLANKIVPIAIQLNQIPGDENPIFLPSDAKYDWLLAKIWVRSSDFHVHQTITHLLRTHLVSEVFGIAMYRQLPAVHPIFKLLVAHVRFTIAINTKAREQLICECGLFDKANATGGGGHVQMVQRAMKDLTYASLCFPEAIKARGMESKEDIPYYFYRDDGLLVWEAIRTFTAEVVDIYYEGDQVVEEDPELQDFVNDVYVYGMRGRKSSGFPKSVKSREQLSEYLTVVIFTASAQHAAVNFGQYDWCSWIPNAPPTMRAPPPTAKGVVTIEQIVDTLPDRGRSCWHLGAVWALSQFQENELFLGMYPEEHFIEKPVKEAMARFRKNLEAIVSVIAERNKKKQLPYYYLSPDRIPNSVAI
As to the kind of experiment: Inhibition of 5LOX (unknown origin) using arachidonic acid as substrate at 0.01 uM after 5 mins by spectrophotometric analysis.

Test [2] addresses T1, Polyunsaturated fatty acid 5-lipoxygenase (Homo sapiens). As to the kind of experiment: Inhibition of 5LOX (unknown origin) using arachidonic acid as substrate at 0.1 uM after 5 mins by spectrophotometric analysis.
The target of test [3] is T2, Polyunsaturated fatty acid 5-lipoxygenase (Homo sapiens, UniProt P09917).
T2 sequence (P09917 whole entry): T1 sequence (whole entry)
Kind of test: Inhibition of 5LOX (unknown origin) using arachidonic acid as substrate after 5 mins by spectrophotometric analysis.

Test [4] deals with T1, Polyunsaturated fatty acid 5-lipoxygenase (Homo sapiens). Kind of test: Inhibition of 5LOX (unknown origin) using arachidonic acid as substrate at 10 uM after 5 mins by spectrophotometric analysis.
Test [5] shares this target. Kind of test: Inhibition of 5LOX (unknown origin) using arachidonic acid as substrate at 1 uM after 5 mins by spectrophotometric analysis.

For orientation: inhibition means how much of the control response was suppressed. One may read the IC50 as the concentration at which inhibition is half-maximal. Low values mean greater potency in that assay, high ones weaker potency in that assay. Take `COc1ccc2c(c1)c(C(=O)C(=O)N1CCOCC1)cn2OS(=O)(=O)c1ccc(C)cc1`: the inhibition is 4.7% in test [1], 22% in test [2], 59.2% in test [4] and 53.8% in test [5]. For the same compound, in test [3], half-maximal inhibition (IC50) was put at 1000 nM.

As to `Cc1ccc(S(=O)(=O)n2cc(C(=O)C(=O)N3CCCC3)c3ccccc32)cc1`, the inhibition was determined as 0.9% in test [1], 27.8% in test [2], 95.4% in test [4] and 63.8% in test [5]. For the same compound, the IC50 in test [3] was 600 nM.

Turning to `COc1ccc2c(c1)c(C(=O)C(=O)N1CCCC1)cn2C(=O)/C=C/c1ccccc1`, the inhibition in test [1] worked out at 5.9%; in test [2], 25.6%; in test [4] it was 68.6%; in test [5], 54.5%. For the same compound, the IC50 in test [3] was 1000 nM.

Consider `O=C(C(=O)N1CCCC1)c1cn(C(=O)c2ccccc2)c2ccccc12`, for which the inhibition in test [1] was found to be 6.8%; in test [2], 17.4%; in test [4] it was 59.6%; in test [5], 54.2%. Further, in test [3], the IC50 came to 1000 nM.

Take `O=C(C(=O)N1CCOCC1)c1cn(C(=O)/C=C/c2ccccc2)c2ccccc12`: the inhibition worked out at 2.5% in test [1], 21.1% in test [2], 59.2% in test [4] and 40.7% in test [5]. In test [3], this compound displayed an IC50 of 5000 nM.
